From patent US6465654B2, “Process for preparing 1-substituted, 2-substituted 1H-imidazo[4, 5-c]quinoline-4-amines” (3M Innovative Properties Company, priority 1991, dated 2002)

Experiments:
[1] = test system: Herpes simplex virus Type II strain 333; assay: Antiviral activity in guinea pigs infected with Herpes simplex virus Type II (lesion inhibition); type: in vivo; details: oral once daily for four days, dose 2 mg/kg
Text: Female Hartley guinea pigs weighing 200 to 250 g are anesthetized with methoxyflurane (available under the […] from Pitman-Moore, Inc., Washington Crossing, N.J.), after which the vaginal area is swabbed with a dry cotton swab. The guinea pigs are then infected intravaginally with a cotton swab saturated with Herpes simplex virus Type II strain 333 (1×10^5 plaque forming units/mL). Guinea pigs are assigned to groups of 7 animals; one group for each treatment and one to serve as a control (vehicle treated). The compounds of the invention are formulated in water containing 5% Tween 80 (a polyoxyethylene sorbitan monooleate available from Aldrich Chemical Company, Inc., Milwaukee, Wis.). The, guinea pigs are treated orally once daily for four consecutive days starting 24 hours after infection. Antiviral activity is evaluated by comparing lesion development in compound-treated versus vehicle-treated guinea pigs. […] The maximum lesion score of each guinea pig is used to calculate the percentage lesion inhibition. The percentage lesion inhibition is calculated as follows: […]

interferon [2] = assay: Interferon induction in guinea pigs (serum interferon titer); type: in vivo; details: guinea pig serum 24 hours after initial oral dose, 2 mg/kg
Text: Female Hartley guinea pigs weighing 200 to 250 g are anesthetized with methoxyflurane (available under the […] from Pitman-Moore, Inc., Washington Crossing, N.J.), after which the vaginal area is swabbed with a dry cotton swab. The guinea pigs are then infected intravaginally with a cotton swab saturated with Herpes simplex virus Type II strain 333 (1×10^5 plaque forming units/mL). Guinea pigs are assigned to groups of 7 animals; one group for each treatment and one to serve as a control (vehicle treated). The compounds of the invention are formulated in water containing 5% Tween 80 (a polyoxyethylene sorbitan monooleate available from Aldrich Chemical Company, Inc., Milwaukee, Wis.). The, guinea pigs are treated orally once daily for four consecutive days starting 24 hours after infection. Twenty-four hours after the initial dose of test compound has been administered, blood is obtained from 3 guinea pigs from each treatment group by cardiac puncture of methoxyflurane anesthetized animals. Blood is pooled and allowed to clot at room temperature. After low speed centrifugation, serum is collected and stored at -70° C. until analysis. Interferon levels in the guinea pig serum are determined in a standard microtiter assay using transformed guinea pig cells (ATCC CRL 1405). The interferon assay is done in 96 well microtiter plates. Confluent monolayers of transformed guinea pig cells are treated with dilutions of guinea pig serum made with medium 199 (GIBCO, Grand Island, N.Y.). The cell and serum dilutions are incubated at 37° C. overnight. The following day, the medium and serum are removed and about 10 plaque forming units of Mengovirus are added to each well. Controls consist of wells that receive no guinea pig serum (virus positive control) and wells that receive no virus (virus negative control). Cells and virus are incubated for 2 to 3 days at 37° C. before quantifying for viral cytopathic effect. The viral cytopathic effect is quantified by staining with 0.05% crystal violet followed by spectrophotometric absorbance measurements. The titer of interferon in serum is expressed as units/mL and is the reciprocal of the highest dilution that protects cells from virus.

interferon-α [3] = assay: Interferon-α induction in human cells, PBM; type: cell-based; details: 24 hours
interferon [4] = assay: Interferon induction in mice; type: in vivo; details: mouse serum
Outline: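 Mouse serum collected at 1, 2 and 4 h (separate groups), pooled, stored at −70° C, then assayed as for human-cell interferon. Values in α/β reference units/mL against a mouse MU-1-IF standard; "<" marks levels below assay sensitivity.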

interferon-α [5] = assay: Interferon-α induction in human cells, diluted whole blood; type: cell-based; details: 24 hours
MC-26 colon tumor cells = assay: Inhibition of MC-26 tumors in mice, 14 day lung colony count; type: in vivo; details: lung colonies day 14, 4×10^4 MC-26 cells i.v., oral 30 mg/kg on days 3-7 and 10-14; control 385 ± 31
Protocol: The mice are sacrificed 14 days later. […] Five mice are in each treatment group and comparisons are made to controls. […] The mice in the control groups were dosed orally with saline (10 mL/kg) on days 3, 4, 5, 6, and 7, and with water (10 mL/kg) on days 10, 11, 12, 13, and 14.

[6] = test system: vesicular stomatitis virus (VSV); assay: microbe, parasite or virus in culture; type: cell-based; details: Vesicular stomatitis virus, read-out: VSV Yield Inhibition

Row | Compound | % Lesion Inhibition [1] [%] | Interferon-α induction (interferon-α [3]; dose concentration 0.01 μg/mL) | Interferon-α induction (interferon-α [3]; dose concentration 0.05 μg/mL) | Interferon-α induction (interferon-α [3]; dose concentration 0.10 μg/mL) | Interferon-α induction (interferon-α [3]; dose concentration 0.50 μg/mL) | Interferon-α induction (interferon-α [3]; dose concentration 1.0 μg/mL) | Interferon-α induction (interferon-α [3]; dose concentration 5.0 μg/mL) | Interferon induction in mice (interferon [4]; oral 1 mg/kg, 1 hr) [Reference Units/mL] | Interferon induction in mice (interferon [4]; oral 1 mg/kg, 2 hr) [Reference Units/mL] | Interferon induction in mice (interferon [4]; oral 1 mg/kg, 4 hr) | Interferon induction in mice (interferon [4]; oral 3 mg/kg, 1 hr) | Interferon induction in mice (interferon [4]; oral 3 mg/kg, 2 hr) | Interferon induction in mice (interferon [4]; oral 3 mg/kg, 4 hr) [Reference Units/mL] | Interferon induction in mice (interferon [4]; oral 10 mg/kg, 1 hr) [Reference Units/mL] | Interferon induction in mice (interferon [4]; oral 10 mg/kg, 2 hr) | Interferon induction in mice (interferon [4]; oral 10 mg/kg, 4 hr) | Number of Colonies (MC-26 colon tumor cells) | Interferon induction in mice (interferon [4]; oral 0.3 mg/kg, 1 hr) | Interferon induction in mice (interferon [4]; oral 0.3 mg/kg, 2 hr) | Interferon induction in mice (interferon [4]; oral 0.3 mg/kg, 4 hr) | further results
1 | CC(C)Cn1c(CO)nc2c(N)nc3ccccc3c21 [Example 9, 4-Amino-1-(2-methylpropyl)-1H-imidazo-[4,5-c]quinoline-2-methanol] | 37 | <1.8 α Reference Units/mL | 16 α Reference Units/mL | 140 α Reference Units/mL | 750 α Reference Units/mL | 750 α Reference Units/mL | 750 α Reference Units/mL | <47 | <47 | <47 Reference Units/mL | ≦47 Reference Units/mL | ≦47 Reference Units/mL | <47 | 330 | 740 Reference Units/mL | ≦47 Reference Units/mL |  |  |  |  | Reference Units/mL (interferon in serum) (interferon [2]): 266 Units/mL; Interferon induction in mice (interferon [4]; oral 30 mg/kg, 1 hr): 2900 Reference Units/mL; Interferon induction in mice (interferon [4]; oral 30 mg/kg, 2 hr): 5000 Reference Units/mL; Interferon induction in mice (interferon [4]; oral 30 mg/kg, 4 hr): 4 Reference Units/mL
2 | CC(C)Cn1c(C(C)O)nc2c(N)nc3ccccc3c21 (stereo not drawn) [Example 20, 4-Amino-α-methyl-1-(2-methylpropyl)-1H-imidazo[4,5c]-quinoline-2-methanol] | 100 | <1.8 α Reference Units/mL | 190 α Reference Units/mL | 190 α Reference Units/mL | 1000 α Reference Units/mL | 1000 α Reference Units/mL | 1000 α Reference Units/mL | 140 | 560 | <47 Reference Units/mL | 970 Reference Units/mL | 1200 Reference Units/mL | 140 | 2200 | 5000 Reference Units/mL | 100 Reference Units/mL |  |  |  |  | Interferon-α induction (interferon-α [5]; dose concentration 0.10 μg/mL): 85 α Reference Units/mL; Interferon-α induction (interferon-α [5]; dose concentration 0.50 μg/mL): 440 α Reference Units/mL; Interferon-α induction (interferon-α [5]; dose concentration 1.0 μg/mL): 250 α Reference Units/mL; Interferon-α induction (interferon-α [5]; dose concentration 5.0 μg/mL): 190 α Reference Units/mL; Interferon induction in mice (interferon [4]; oral 30 mg/kg, 1 hr): 2200 Reference Units/mL; Interferon induction in mice (interferon [4]; oral 30 mg/kg, 2 hr): 8700 Reference Units/mL; Interferon induction in mice (interferon [4]; oral 30 mg/kg, 4 hr): 320 Reference Units/mL
3 | CSCc1nc2c(N)nc3ccccc3c2n1Cc1ccccc1 [Example 31, 2-Methylthiomethyl-1-phenylmethyl-1H-imidazo-[4,5-c]quinolin-4-amine] |  | <4 α Reference Units/mL | 18 α Reference Units/mL | 2500 α Reference Units/mL | 370 α Reference Units/mL | 280 α Reference Units/mL | 370 α Reference Units/mL | <61 | 140 | ≦61 Reference Units/mL | 420 Reference Units/mL | 420 Reference Units/mL | 320 | 960 | 5000 Reference Units/mL | 550 Reference Units/mL | 221 ± 37 | <61 Reference Units/mL | <61 Reference Units/mL | <61 Reference Units/mL | log reduction at 1 µg/mL [6]: 5; log reduction at 5 µg/mL [6]: 5; log reduction at 10 µg/mL [6]: 6
4 | COCc1nc2c(N)nc3ccccc3c2n1CC(C)C [Example 34, 2-Methoxymethyl-1-(2-methylpropyl)-1H-imidazo[4,5-c]quinolin-4-amine] |  | <4 α Reference Units/mL | <4 α Reference Units/mL | 1600 α Reference Units/mL | 550 α Reference Units/mL | 180 α Reference Units/mL | 200 α Reference Units/mL | 140 | 320 | ≦61 Reference Units/mL | 420 Reference Units/mL | 420 Reference Units/mL | 140 | 1100 | 1100 Reference Units/mL | 180 Reference Units/mL | 196 ± 20 | ≦61 Reference Units/mL | ≦61 Reference Units/mL | ≦61 Reference Units/mL | 
5 | COCCn1c(COC)nc2c(N)nc3ccccc3c21 [Example 37, 1-(2-Methoxyethyl)-2-methoxymethyl-1H-imidazo[4,5-c]quinolin-4-amine] |  |  |  | <4 α Reference Units/mL | 2500 α Reference Units/mL | 2500 α Reference Units/mL | 210 α Reference Units/mL | <120 | <120 | <120 Reference Units/mL | <120 Reference Units/mL | <120 Reference Units/mL | <120 | 270 | ≦270 Reference Units/mL | ≦270 Reference Units/mL | 123 ± 31 | <120 Reference Units/mL | <120 Reference Units/mL | <120 Reference Units/mL | 
